In one assay the target is T1, FLAG-p38α (Homo sapiens, UniProt Q16539).
T1 construct: expressed in transfected cells; host or cells: HeLa
Description: Ubiquitination assay, FLAG-p38α and HA-Ub in HeLa cells. The assay is classed as cell-based. Particulars: 500 nM PROTAC, 1 h. Here is the method:
HeLa cells (2 × 10^6) were seeded into 10 cm dishes and allowed to adhere overnight. On the following day, cells were transfected with 3 µg pcDNA5-FLAG-p38α or pcDNA5-FLAG-p38δ and 1 µg pRK5-HA-Ubiquitin-WT (Addgene plasmid #17608) in Opti-MEM media using Lipofectamine 2000 (Invitrogen). After 6 h, Opti-MEM media were replaced with DMEM (1 × ) and cells were grown for an additional 24 h. After this time, cells were treated with indicated concentrations of either vehicle (DMSO) or PROTAC for the indicated amount of time at 37 °C. Cells were then placed on ice, rinsed twice with ice-cold 1X PBS and lysed in 500 µL modified 1X RIPA buffer (25 mM Tris-HCl pH 7.6, 150 mM NaCl, 1% NP-40, 1% sodium deoxycholate, 0.1% SDS) containing 5 mM 1,10-phenanthroline monohydrate, 10 mM N-ethylmaleimide, 20 µM PR-619, and 1X protease inhibitor cocktail (Roche). Lysates were spun down at 14,000 × g at 4 °C for 20 min and protein content was measured by Pierce BCA Protein Assay (ThermoFisher Scientific). […] Immunoprecipitated protein was eluted off of the beads by heating at 95 °C for 5 min and the supernatant was run on an SDS-PAGE gel and evaluated for the presence of immunoprecipitated FLAG-tagged proteins (anti-FLAG M2, Sigma #F1804), as well as ubiquitinated FLAG-tagged proteins (anti-HA-tag (6E2), CST #2367). […]

Another assay concerns the target T2, ERK1 (Homo sapiens, UniProt P27361).
T2 construct: endogenous in cells; host or cells: MDA-MB-231
As to the kind of experiment: ERK1 degradation, western blot in MDA-MB-231 cells. Particulars: 0.025-2.5 µM. It counts as cell-based. Here is the method:
[…] once with ice-cold PBS (1 × ), followed by lysis in buffer containing 25 mM Tris [pH 7.5], 0.25% sodium deoxycholate, 1% Triton X-100, supplemented with 1X protease inhibitor cocktail (Roche), and phosphatase inhibitors (10 mM NaF, 1 mM Na3VO4, and 20 mM β-glycerophosphate), unless otherwise noted. Lysates were spun at 14,000 × g for 10 min at 4 °C and supernatant was evaluated for protein content using a Pierce BCA Protein Assay (ThermoFisher Scientific). In all experiments, 25–50 μg of protein was loaded onto 10% SDS-PAGE gels or 4–20% Criterion TGX precast gradient gels (Bio-Rad), transferred to nitrocellulose membranes, and probed with the specified antibodies overnight at 4 °C in 1X TBS-Tween (Tris-buffered saline plus 0.02% Tween 20) containing 5% non-fat milk. Immunoblots were visualized using a Bio-Rad ChemiDoc imaging instrument and subsequently processed and quantified using the accompanying Bio-Rad ImageLab software. See Supplementary Figure 8 for uncropped scans of western blots shown in the main text figures.
Supplementary Figure 4 cont.
Supplementary Figure 4. Characterization of M APK fam ily degradation selectivity (related to Figures 1-2). (a) p38 M APK fam ily m em bers (α, β, δ, γ) were aligned using the T-Coffee multiple sequence alignm ent server. […] Note: JNK1 and JNK2 are expressed as two alternatively-spliced form s. […]

In assay [1] the target is T3, VHL:PROTAC:p38α ternary complex (Homo sapiens, UniProt P40337+Q16539).
T3 construct: The plasmid contains an N-terminal His6 tag and encodes a region spanning amino acids 2–360 of the human p38α kinase; made in house; host or cells: E. coli BL21-CodonPlus(DE3)-RIPL (p38α); E. coli BL21(DE3) (GST-VBC)
T3 sequence (Q16539 2-360 limits assumed): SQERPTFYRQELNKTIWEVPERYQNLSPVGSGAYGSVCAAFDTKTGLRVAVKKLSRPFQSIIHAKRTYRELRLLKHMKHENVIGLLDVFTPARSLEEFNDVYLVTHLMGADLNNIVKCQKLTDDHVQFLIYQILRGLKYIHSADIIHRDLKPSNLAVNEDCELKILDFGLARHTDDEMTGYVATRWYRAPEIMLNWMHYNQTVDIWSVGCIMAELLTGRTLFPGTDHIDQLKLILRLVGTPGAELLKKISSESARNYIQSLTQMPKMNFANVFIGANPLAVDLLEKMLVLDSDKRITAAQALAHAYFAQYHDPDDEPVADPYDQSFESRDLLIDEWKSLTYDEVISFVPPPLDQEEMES
T3 sequence (P40337 whole entry, the tested form may be a part): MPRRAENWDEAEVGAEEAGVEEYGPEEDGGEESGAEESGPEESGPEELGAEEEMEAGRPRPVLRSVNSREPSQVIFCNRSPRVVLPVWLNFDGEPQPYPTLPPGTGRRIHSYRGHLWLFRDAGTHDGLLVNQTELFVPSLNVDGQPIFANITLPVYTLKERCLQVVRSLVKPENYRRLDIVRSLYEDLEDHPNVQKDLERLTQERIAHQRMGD
T3 sequence (Q15370 whole entry partner, the tested form may be a part): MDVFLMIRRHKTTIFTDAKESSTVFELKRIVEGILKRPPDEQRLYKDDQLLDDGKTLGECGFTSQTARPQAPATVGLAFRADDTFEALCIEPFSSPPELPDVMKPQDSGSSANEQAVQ
T3 sequence (Q15369 whole entry partner, the tested form may be a part): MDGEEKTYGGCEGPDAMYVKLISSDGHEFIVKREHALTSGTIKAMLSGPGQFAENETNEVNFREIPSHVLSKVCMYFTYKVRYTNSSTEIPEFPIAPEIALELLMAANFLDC
Description: AlphaLISA ternary complex assay. It counts as binding. The settings on record: His-p38α and GST-VBC 150 nM, increasing PROTAC. On the procedure: Assays were performed at room temperature and plates sealed with transparent film between addition of reagents to prevent well contamination. All reagents were diluted in 50 mM HEPES pH 7.5, 50 mM NaCl, 69 µM Brij-35, and 0.1 mg mL^−1 BSA. Recombinant GST-VBC was mixed with His6-p38α and PROTAC (diluted one-in-three from 6× stock) to a final volume of 15 μL per well in a OptiPlate-384 well microplate (PerkinElmer) and incubated for 30 min. VBC and p38α were kept at a constant final concentration of 150 nM. In all, 7.5 μL of Anti-6xHis AlphaLISA Acceptor beads (PerkinElmer) were added to each well and plates were incubated for 15 min in the dark. In total, 7.5 μL of Alpha Glutathione Donor beads (PerkinElmer) were added to each well and plates were incubated for 45 min in the dark. Plates were read on a Synergy 2 microplate reader using the Gen5 imager software (BioTek Instruments) with an excitation wavelength of 680 nm and emission wavelength of 615 nm. Intensity values were plotted in Graphpad Prism with PROTAC concentration values represented on a log10 scale.
(In general: Alpha assays give light when donor and acceptor beads are brought close together.)

This note sets out measurements from PMC6328587 (Nature Communications, 2019).

T2 sequence (P27361 whole entry): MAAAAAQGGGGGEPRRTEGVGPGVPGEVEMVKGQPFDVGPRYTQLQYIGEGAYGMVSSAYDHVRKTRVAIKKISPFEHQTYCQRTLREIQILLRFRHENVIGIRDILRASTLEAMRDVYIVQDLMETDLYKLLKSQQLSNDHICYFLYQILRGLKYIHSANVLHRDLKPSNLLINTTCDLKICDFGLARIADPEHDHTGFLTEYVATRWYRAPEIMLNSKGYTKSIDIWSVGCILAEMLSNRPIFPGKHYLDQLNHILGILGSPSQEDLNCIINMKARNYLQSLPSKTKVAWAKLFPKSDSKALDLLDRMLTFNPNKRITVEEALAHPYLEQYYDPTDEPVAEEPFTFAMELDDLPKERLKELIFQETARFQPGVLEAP
T1 sequence (Q16539 whole entry): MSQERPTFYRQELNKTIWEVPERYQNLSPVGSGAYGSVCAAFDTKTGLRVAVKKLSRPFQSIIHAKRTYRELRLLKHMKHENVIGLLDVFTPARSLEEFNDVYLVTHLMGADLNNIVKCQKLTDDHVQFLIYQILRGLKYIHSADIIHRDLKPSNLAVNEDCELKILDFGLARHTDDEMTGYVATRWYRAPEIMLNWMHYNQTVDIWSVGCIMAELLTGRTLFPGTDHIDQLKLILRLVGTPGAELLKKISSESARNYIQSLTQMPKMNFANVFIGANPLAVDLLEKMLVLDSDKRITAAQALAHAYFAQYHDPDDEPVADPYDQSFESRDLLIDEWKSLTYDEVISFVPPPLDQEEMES

`COc1cc2c(Oc3ccc(NC(=O)C4(C(=O)Nc5ccc(F)cc5)CC4)cc3F)ccnc2cc1OCCCCOCCCCOCC(=O)N[C@H](C(=O)N1C[C@H](O)C[C@H]1C(=O)NCc1ccc(-c2scnc2C)cc1)C(C)(C)C` [SJFα]: the “ubiquitination of FLAG-p38α” value at FLAG-p38α is reported as “substantial, high molecular weight (HMW) poly-Ub conjugation”. Further, the ERK1 degradation entry on ERK1 is recorded as “neither PROTAC degrades”. Moreover, the “p38α:PROTAC:VHL ternary complex formation (AlphaLISA)” value in assay [1] is reported as “facilitates a VHL:PROTAC:p38α ternary complex”.
In the case of `COc1cc2c(Oc3ccc(NC(=O)C4(C(=O)Nc5ccc(F)cc5)CC4)cc3F)ccnc2cc1OCCOCCOCCOc1cc(-c2scnc2C)ccc1CNC(=O)[C@@H]1C[C@@H](O)CN1C(=O)[C@H](C(C)C)N1Cc2ccccc2C1=O` [SJFδ], the “ubiquitination of FLAG-p38α” value on FLAG-p38α is listed as “this effect was not seen”. On ERK1, the ERK1 degradation entry is listed as “neither PROTAC degrades”. The “p38α:PROTAC:VHL ternary complex formation (AlphaLISA)” value in assay [1] is reported as “no such ternary species is detectable”.
